# “Also recorded” adds a separate entry of the source.
# Assays:
# [1] = target: T1, human-MMP-2 (Homo sapiens, UniProt P08253); details: fTHP comparison; cited from earlier work
# T1 construct: purchased Enzo Life Sciences
# T1 sequence (P08253 110-660): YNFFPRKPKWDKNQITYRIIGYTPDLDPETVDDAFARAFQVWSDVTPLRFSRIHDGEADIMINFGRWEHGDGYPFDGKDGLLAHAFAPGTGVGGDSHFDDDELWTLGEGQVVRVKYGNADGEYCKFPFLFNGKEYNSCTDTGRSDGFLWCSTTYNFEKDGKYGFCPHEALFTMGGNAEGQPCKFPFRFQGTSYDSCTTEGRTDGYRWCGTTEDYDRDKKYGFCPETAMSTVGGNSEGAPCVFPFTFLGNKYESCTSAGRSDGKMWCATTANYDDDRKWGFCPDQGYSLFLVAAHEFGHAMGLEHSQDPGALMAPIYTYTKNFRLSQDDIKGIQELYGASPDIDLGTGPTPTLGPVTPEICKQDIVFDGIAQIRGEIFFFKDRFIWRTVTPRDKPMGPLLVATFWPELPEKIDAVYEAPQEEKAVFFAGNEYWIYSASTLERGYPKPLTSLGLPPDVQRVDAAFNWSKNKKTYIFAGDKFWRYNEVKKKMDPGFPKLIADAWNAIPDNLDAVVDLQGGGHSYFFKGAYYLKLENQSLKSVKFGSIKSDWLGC
# Description: (§1) Table 1 Enzyme kinetic parameters for gelatinase mediated hydrolysis of 5FAM-THPs. | column: KM (μM); kcat (s^−1); kcat/KM (M^−1 s^−1)
# [2] = target: T2, human-MMP-9 (Homo sapiens, UniProt P14780); details: fTHP comparison; cited from earlier work
# T2 construct: purchased Enzo Life Sciences
# Description: as §1
# [3] = tested on: gelatinase positive HT-1080 human fibrosarcoma cells; assay: Confocal fluorescence microscopy of 5FAM6-THP hydrolysis in HT-1080 cells; assay type: cell-based; details: SB-3CT 1 µM pre-incubated 30 min, then 5FAM6-THP 1 µM, 1 h, mean of n = 10 cells
# Description: Two image fields are shown per condition.
# [4] = tested on: MMP-2; assay: MMP-2 inhibition by SB-3CT; assay type: biochemical; details: at SB-3CT 72-fold Ki (1 µM)
# [5] = tested on: MMP-7; details: cited from earlier work
# T2 sequence (P14780 107-707 limits assumed): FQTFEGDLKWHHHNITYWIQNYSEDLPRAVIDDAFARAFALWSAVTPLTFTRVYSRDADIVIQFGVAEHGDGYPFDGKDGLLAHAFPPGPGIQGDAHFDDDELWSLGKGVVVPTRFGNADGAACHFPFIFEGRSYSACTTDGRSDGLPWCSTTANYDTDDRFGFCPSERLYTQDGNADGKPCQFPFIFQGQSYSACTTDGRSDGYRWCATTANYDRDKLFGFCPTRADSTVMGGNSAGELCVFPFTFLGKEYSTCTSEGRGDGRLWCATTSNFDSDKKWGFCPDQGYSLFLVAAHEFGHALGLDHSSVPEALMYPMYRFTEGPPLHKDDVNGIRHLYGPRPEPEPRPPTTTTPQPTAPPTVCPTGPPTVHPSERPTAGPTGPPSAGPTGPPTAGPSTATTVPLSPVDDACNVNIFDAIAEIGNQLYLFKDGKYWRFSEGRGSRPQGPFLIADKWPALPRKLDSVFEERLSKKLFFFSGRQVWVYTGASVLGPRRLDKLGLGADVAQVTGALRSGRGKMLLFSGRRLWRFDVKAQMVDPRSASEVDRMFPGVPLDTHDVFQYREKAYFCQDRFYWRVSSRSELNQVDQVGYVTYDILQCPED
compound,measurement,setting,value
"(GPhP)5GPK(Mca)GPPG~VVGEK(Dnp)GEN(GPhP)5-NH2 [fTHP, fluorogenic THP substrate with 7-methoxycoumarin and 2,4-dinitrophenyl groups conjugated to the ε-amino groups of Lys]",Km,[1],4.4 µM
same,kcat,[1],0.061 s⁻¹
same,kcat/KM,[1],"14,002 M^−1 s^−1"
same,Km,[2],8.1 µM
same,kcat,[2],0.044 s⁻¹
same,kcat/KM,[2],"5,400 M^−1 s^−1"
O=S(=O)(CC1CS1)c1ccc(Oc2ccccc2)cc1 (stereo not shown) [SB-3CT],reduction of 5FAM6-THP fluorescence by gelatinase inhibitor,[3],greatly attenuated; also recorded: greatly reduced fluorescence levels when 5FAM6-THP was incubated with HT-1080 cells by three-fold; also recorded: low levels of fluorescence observed in SB-3CT treated HT-1080 cells
same,occupancy of MMP-2 at equilibrium,[4],approximately 99%
GVPLSLTMGC [MMP-7 substrate bearing a heterologous donor and acceptor pair of near infrared dyes on the N- and C- termini],increase in fluorescence after digestion with MMP-7,[5]; after digestion with MMP-7,~7 fold
same,level of quenching,[5]; near infrared donor/acceptor dye pair on N- and C-termini,85%

# From article PMC4347883, “Evaluation of a Triple-Helical Peptide with Quenched Fluorophores for Optical Imaging of MMP-2 and MMP-9 Proteolytic Activity” (Molecules, 2014)
